Experimental data as given in ChEMBL document CHEMBL5257025, “Artemisinin-Derived Dimers: Potent Antimalarial and Anticancer Agents” (J Med Chem, 2016).
pIC50: −log10 of the molar value.

Experiments:
BT-474 = assay: Antiproliferative activity against human BT-474 cells assessed as reduction in cell growth measured after 72 hrs by MTT assay; type: functional, cell-based; conditions: BT-474, 72 h
MDA-MB-231 = assay: Antiproliferative activity against human MDA-MB-231 cells assessed as reduction in cell viability measured after 48 hrs by MTT assay; type: functional, cell-based; conditions: MDA-MB-231, 48 h
HCT-116 = assay: Antiproliferative activity against human HCT-116 cells assessed as growth after 48 hrs by MTT assay; type: functional, cell-based; conditions: HCT-116, 48 h
[1] = Cytotoxicity against human HFF cells assessed as cell growth inhibition measured after 48 hrs by MTT assay; type: toxicity, cell-based
[2] = Antiproliferative activity against human 1205Lu cells assessed as reduction in cell growth; type: functional, cell-based
HeLa = assay: Antiproliferative activity against human Hela cells assessed as cell growth inhibition measured after 48 hrs by MTT assay; type: functional, cell-based
KB = assay: Antiproliferative activity against human KB cells assessed as reduction in cell viability incubated for 48 hrs by MTT assay; type: functional, cell-based
Plasmodium falciparum [3] = assay: Antimalarial activity against Plasmodium falciparum K1 assessed as inhibition of malarial growth; type: functional, organism-based
[4] = Cytotoxicity against African green monkey Vero cells; type: toxicity, cell-based; conditions: chlorocebus sabaeus, read-out: TC50 (the source's name)
[5] = Antiproliferative activity against human BC cells assessed as growth inhibition; type: functional, cell-based
HL-60 = assay: Growth inhibition of human HL-60 cells assessed as cell growth inhibition measured after 48 hrs by MTT assay; type: functional
Plasmodium falciparum [6] = assay: microbe, parasite or virus in culture; conditions: Dd2
Description: Antiplasmodial activity against Plasmodium falciparum Dd2 assessed as inhibition of parasitic growth

BT-549 = assay: Antiproliferative activity against human BT-549 cells assessed as reduction in cell viability incubated for 48 hrs by MTT assay; type: functional, cell-based; conditions: BT-549, 48 h
Jurkat = assay: Antiproliferative activity against human Jurkat cells assessed as reduction in cell viability incubated for 48 hrs by MTT assay; type: functional, cell-based
Plasmodium falciparum [7] = assay: Antimalarial activity against Plasmodium falciparum HB3 assessed as inhibition of malarial growth; type: functional, organism-based
Plasmodium falciparum [8] = assay: Antiplasmodial activity against Plasmodium falciparum NF54 assessed as reduction in malarial growth; type: functional, organism-based
Plasmodium falciparum [9] = assay: Antimalarial activity against Plasmodium falciparum NF54 assessed as reduction in cell growth; type: functional, organism-based
BeWo = assay: Antiproliferative activity against human BeWo cells assessed as reduction in cell viability after 72 hrs by MTT assay; type: functional, cell-based
EL4 = assay: Antiproliferative activity against mouse EL4 cells assessed as cell growth inhibition incubated for 72 hrs by MTT assay; type: functional, cell-based; conditions: EL4, 72 h
HT-29 = assay: cells; conditions: Homo sapiens, HT-29, 72 h
P388 = assay: Antiproliferative activity against mouse P388 cells assessed as cell growth inhibition incubated for 72 hrs by MTT assay; type: functional, cell-based; conditions: P388, 72 h
MCF7 = assay: Antiproliferative activity against human MCF7 cells assessed as reduction in cell viability measured after 48 hrs by SRB assay; type: functional, cell-based; conditions: MCF7, 48 h

C[C@@H]1CC[C@H]2[C@@H](C)C(CC(CC3O[C@@H]4O[C@]5(C)CC[C@@H]6[C@@H](C)CC[C@H]([C@@H]3C)[C@]46OO5)CN3CCN(C)CC3)O[C@H]3O[C@@]4(C)CC[C@@H]1[C@]32OO4 (stereo partly drawn) showed a pIC50 (BT-474) of 6.96 and a pIC50 (MDA-MB-231) of 5.48.
With C[C@H]1[C@H](OC(=O)CCC(=O)O)O[C@@H]2O[C@@]3(C)CC[C@H]4[C@H](C)CC[C@@H]1[C@@]24OO3 [ARTESUNATE] the pIC50 (HCT-116) was 5.15, the CC50 at 48 h ([1]; time 48 hrs, read-out: TC50) was 717000 nM and the pIC50 [2] was 5.15. It also gave a pIC50 (HeLa) of 5.15.
Compound C[C@H]1[C@H](CCCCC[C@H]2O[C@H]3O[C@@]4(C)CC[C@H]5[C@H](C)CC[C@@H]([C@H]2C)[C@@]35OO4)O[C@H]2O[C@@]3(C)CC[C@H]4[C@H](C)CC[C@@H]1[C@@]24OO3 has a pIC50 (KB) of 6.12, a pIC50 (Plasmodium falciparum [3]) of 9.04 and a CC50 [4] of 2800 nM. The pIC50 [5] was 6.44.
With C[C@@H]1CC[C@H]2[C@@H](C)C(CC(CC3O[C@@H]4O[C@]5(C)CC[C@@H]6[C@@H](C)CC[C@H]([C@@H]3C)[C@]46OO5)CS(=O)(=O)c3ccc(COC(=O)N(C)C)cc3)O[C@H]3O[C@@]4(C)CC[C@@H]1[C@]32OO4 (stereo partly drawn) the pIC50 (HCT-116) was 7.15, the IC50 at 48 h [1] was 57500 nM and the pIC50 [2] was 6.89. It also gave a pIC50 (HeLa) of 6.57.
C[C@H]1[C@H](CCCC[C@H]2O[C@H]3O[C@@]4(C)CC[C@H]5[C@H](C)CC[C@@H]([C@H]2C)[C@@]35OO4)O[C@H]2O[C@@]3(C)CC[C@H]4[C@H](C)CC[C@@H]1[C@@]24OO3 gave a pIC50 (KB) of 5.74, a pIC50 (Plasmodium falciparum [3]) of 8.85 and a CC50 [4] of 10000 nM. It also gave a pIC50 [5] of 5.80.
Compound C[C@@H]1CC[C@H]2[C@@H](C)C(CCN3CCC(C4CCN(CCC5O[C@H]6O[C@@]7(C)CC[C@H]8[C@H](C)CC[C@@H]([C@H]5C)[C@@]68OO7)CC4)CC3)O[C@H]3O[C@@]4(C)CC[C@@H]1[C@]32OO4 (stereo partly drawn) has a GI50 (HL-60) of 400 nM.
For C[C@@H]1CC[C@H]2[C@@H](C)C(O)O[C@H]3O[C@]4(C)CC[C@@H]1[C@]32O4 (stereo partly drawn), the pIC50 (Plasmodium falciparum [6]) was 5.56.
With CC(=O)N1CCN(CC(CC2O[C@@H]3O[C@]4(C)CC[C@@H]5[C@@H](C)CC[C@H]([C@@H]2C)[C@]35OO4)CC2O[C@H]3O[C@@]4(C)CC[C@H]5[C@H](C)CC[C@@H]([C@H]2C)[C@@]35OO4)CC1 (stereo partly drawn) the pIC50 (BT-474) was 7.22 and the pIC50 (MDA-MB-231) was 5.10.
For C[C@@H]1CC[C@H]2[C@@H](C)C(OCC(O)COC3O[C@@H]4O[C@]5(C)CC[C@@H]6[C@@H](C)CC[C@H]([C@@H]3C)[C@]46OO5)O[C@H]3O[C@@]4(C)CC[C@@H]1[C@]32OO4 (stereo partly drawn), the pIC50 (BT-549) was 6.32.
With C[C@@H]1CC[C@H]2[C@@H](C)C(CC(CC3O[C@@H]4O[C@]5(C)CC[C@@H]6[C@@H](C)CC[C@H]([C@@H]3C)[C@]46OO5)C(=O)NN)O[C@H]3O[C@@]4(C)CC[C@@H]1[C@]32OO4 (stereo partly drawn) the pIC50 (BT-474) was 7.89.
Compound C[C@@H]1CC[C@H]2[C@@H](C)C(CCCOP(=O)(OCCC3O[C@H]4O[C@@]5(C)CC[C@H]6[C@H](C)CC[C@@H]([C@H]3C)[C@@]46OO5)Oc3ccccc3)O[C@H]3O[C@@]4(C)CC[C@@H]1[C@]32OO4 (stereo partly drawn) has a GI50 (HL-60) of 241 nM, a pIC50 (Plasmodium falciparum [3]) of 9.30 and a pIC50 (Jurkat) of 4.88. The pIC50 (Plasmodium falciparum [7]) was 9.74.
With C[C@@H]1CC[C@H]2[C@H](C[C@]3(Cc4ccc(F)cc4)O[C@H]4O[C@@]5(C)CC[C@H]6[C@H](C)CC[C@@H]([C@H]3C)[C@@]46OO5)C(=O)O[C@H]3O[C@@]4(C)CC[C@@H]1[C@]32OO4 the pIC50 (KB) was 5.11, the CC50 [4] was 1100 nM and the pIC50 [5] was 5.13.
C[C@@H]1CC[C@H]2[C@H](C[C@]3(Cc4cccc(F)c4)O[C@H]4O[C@@]5(C)CC[C@H]6[C@H](C)CC[C@@H]([C@H]3C)[C@@]46OO5)C(=O)O[C@H]3O[C@@]4(C)CC[C@@H]1[C@]32OO4 showed a pIC50 (KB) of 5.40, a CC50 [4] of 5500 nM and a pIC50 [5] of 5.46.
In the case of C[C@@H]1CC[C@H]2[C@H](C[C@]3(CCCCc4ccccc4)O[C@H]4O[C@@]5(C)CC[C@H]6[C@H](C)CC[C@@H]([C@H]3C)[C@@]46OO5)C(=O)O[C@H]3O[C@@]4(C)CC[C@@H]1[C@]32OO4, the pIC50 (KB) was 5.24, the pIC50 (Plasmodium falciparum [8]) was 8.47 and the CC50 [4] was 2400 nM. It also gave a pIC50 [5] of 5.92.
C[C@@H]1CC[C@H]2[C@@H](C)C(CC(COP(=O)(O)Oc3ccccc3)CC3O[C@@H]4O[C@]5(C)CC[C@@H]6[C@@H](C)CC[C@H]([C@@H]3C)[C@]46OO5)O[C@H]3O[C@@]4(C)CC[C@@H]1[C@]32OO4 (stereo partly drawn) showed a pIC50 (HCT-116) of 5.18, an IC50 at 48 h [1] of 56500 nM and a pIC50 (HeLa) of 4.73.
Compound C[C@@H]1CC[C@H]2[C@@H](C)C(CC(CC3O[C@@H]4O[C@]5(C)CC[C@@H]6[C@@H](C)CC[C@H]([C@@H]3C)[C@]46OO5)CN3CCN(c4ccccn4)CC3)O[C@H]3O[C@@]4(C)CC[C@@H]1[C@]32OO4 (stereo partly drawn) has a pIC50 (BT-474) of 7.66 and a pIC50 (MDA-MB-231) of 5.30.
In the case of C[C@@H]1CC[C@H]2[C@@H](C)C(CC(COP(=O)(Oc3ccccc3)Oc3ccccc3)CC3O[C@@H]4O[C@]5(C)CC[C@@H]6[C@@H](C)CC[C@H]([C@@H]3C)[C@]46OO5)O[C@H]3O[C@@]4(C)CC[C@@H]1[C@]32OO4 (stereo partly drawn), the pIC50 (HCT-116) was 7.40, the IC50 at 48 h [1] was 55800 nM and the pIC50 [2] was 7.22. The pIC50 (HeLa) was 6.72.
For CCCCC[C@@]1(C[C@@H]2C(=O)O[C@H]3O[C@@]4(C)CC[C@H]5[C@H](C)CC[C@@H]2[C@@]35OO4)O[C@H]2O[C@@]3(C)CC[C@H]4[C@H](C)CC[C@@H]([C@H]1C)[C@@]24OO3, the pIC50 (KB) was 4.64, the CC50 [4] was 63000 nM and the pIC50 [5] was 4.44.
With COP(=O)(OCCCC1O[C@H]2O[C@@]3(C)CC[C@H]4[C@H](C)CC[C@@H]([C@H]1C)[C@@]24OO3)OCCC1O[C@H]2O[C@@]3(C)CC[C@H]4[C@H](C)CC[C@@H]([C@H]1C)[C@@]24OO3 (stereo partly drawn) the GI50 (HL-60) was 143 nM, the pIC50 (Plasmodium falciparum [3]) was 9.70 and the pIC50 (Jurkat) was 5.11. For the same compound, the pIC50 (Plasmodium falciparum [7]) was 10.05.
With C[C@@H]1CC[C@H]2[C@@H](C)C(CC(COC(=O)CCC(=O)O)CC3O[C@H]4O[C@@]5(C)CC[C@H]6[C@H](C)CC[C@@H]([C@H]3C)[C@@]46OO5)O[C@H]3O[C@@]4(C)CC[C@@H]1[C@]32OO4 (stereo partly drawn) the pIC50 (BT-474) was 6.41, the pIC50 (Plasmodium falciparum [9]) was 8.70 and the pIC50 (MDA-MB-231) was 4.49.
In the case of C[C@@H]1CC[C@H]2[C@@H](C)C(CC(CC3O[C@@H]4O[C@]5(C)CC[C@@H]6[C@@H](C)CC[C@H]([C@@H]3C)[C@]46OO5)CN3CCN(c4cccnc4)CC3)O[C@H]3O[C@@]4(C)CC[C@@H]1[C@]32OO4 (stereo partly drawn), the pIC50 (BT-474) was 7.15 and the pIC50 (MDA-MB-231) was 5.00.
C[C@@H]1CC[C@H]2[C@@H](C)C(CC(CC3O[C@@H]4O[C@]5(C)CC[C@@H]6[C@@H](C)CC[C@H]([C@@H]3C)[C@]46OO5)CS(=O)(=O)c3ccc(CO)cc3)O[C@H]3O[C@@]4(C)CC[C@@H]1[C@]32OO4 (stereo partly drawn) showed a pIC50 (HCT-116) of 7.15, an IC50 at 48 h [1] of 4900 nM and a pIC50 [2] of 7.00. For the same compound, the pIC50 (HeLa) was 6.25.
Work on C[C@@H]1CC[C@H]2[C@@H](C)C(CCS(=O)(=O)CCC3O[C@@H]4O[C@]5(C)CC[C@@H]6[C@@H](C)CC[C@H]([C@@H]3C)[C@]46OO5)O[C@H]3O[C@@]4(C)CC[C@@H]1[C@]32OO4 (stereo partly drawn) yielded a pIC50 (BeWo) of 5.80, a pIC50 (EL4) of 6.09 and a pIC50 (HT-29) of 6.24. The pIC50 (P388) was 5.07 and the pIC50 (MCF7) was 7.40.
